# Experimental data reported in patent US8178668B2, “2-aminopyridine kinase inhibitors” (OSI Pharmaceuticals, LLC, priority 2008, dated 2012).
# How the values were obtained:
# MET (human) = MET (human) (Homo sapiens, UniProt P08581); assay: MET kinase AlphaScreen assay (Km of ATP); assay type: biochemical; settings: ATP at Km; at least duplicate experiments
# Method in brief: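 AlphaScreen detection with PT66 beads (1 h) follows a 60 min room-temperature MET reaction. Substrate is 200 ng/μL biotinylated poly(Glu,Tyr), with ATP set at an enzyme-optimized concentration. Buffer is HEPES pH 7.4 with MgCl2, MnCl2 and 0.334 mM vanadate, compounds at 1% DMSO.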
# RON (human) = RON (human) (Homo sapiens, UniProt Q04912); assay: RON kinase AlphaScreen assay (Km of ATP); assay type: biochemical; settings: ATP at Km; at least duplicate experiments
# Method in brief: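 AlphaScreen with PT66 donor/acceptor beads, read after 1 h, detected phosphorylation of biotinylated poly(Glu,Tyr) by human RON. Enzyme-started reactions ran 30 min at room temperature with ATP at Km. Buffer was HEPES pH 7.4 with MgCl2, glycerol, vanadate and 1% DMSO.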
# MET (human), sequence (P08581 25-1390): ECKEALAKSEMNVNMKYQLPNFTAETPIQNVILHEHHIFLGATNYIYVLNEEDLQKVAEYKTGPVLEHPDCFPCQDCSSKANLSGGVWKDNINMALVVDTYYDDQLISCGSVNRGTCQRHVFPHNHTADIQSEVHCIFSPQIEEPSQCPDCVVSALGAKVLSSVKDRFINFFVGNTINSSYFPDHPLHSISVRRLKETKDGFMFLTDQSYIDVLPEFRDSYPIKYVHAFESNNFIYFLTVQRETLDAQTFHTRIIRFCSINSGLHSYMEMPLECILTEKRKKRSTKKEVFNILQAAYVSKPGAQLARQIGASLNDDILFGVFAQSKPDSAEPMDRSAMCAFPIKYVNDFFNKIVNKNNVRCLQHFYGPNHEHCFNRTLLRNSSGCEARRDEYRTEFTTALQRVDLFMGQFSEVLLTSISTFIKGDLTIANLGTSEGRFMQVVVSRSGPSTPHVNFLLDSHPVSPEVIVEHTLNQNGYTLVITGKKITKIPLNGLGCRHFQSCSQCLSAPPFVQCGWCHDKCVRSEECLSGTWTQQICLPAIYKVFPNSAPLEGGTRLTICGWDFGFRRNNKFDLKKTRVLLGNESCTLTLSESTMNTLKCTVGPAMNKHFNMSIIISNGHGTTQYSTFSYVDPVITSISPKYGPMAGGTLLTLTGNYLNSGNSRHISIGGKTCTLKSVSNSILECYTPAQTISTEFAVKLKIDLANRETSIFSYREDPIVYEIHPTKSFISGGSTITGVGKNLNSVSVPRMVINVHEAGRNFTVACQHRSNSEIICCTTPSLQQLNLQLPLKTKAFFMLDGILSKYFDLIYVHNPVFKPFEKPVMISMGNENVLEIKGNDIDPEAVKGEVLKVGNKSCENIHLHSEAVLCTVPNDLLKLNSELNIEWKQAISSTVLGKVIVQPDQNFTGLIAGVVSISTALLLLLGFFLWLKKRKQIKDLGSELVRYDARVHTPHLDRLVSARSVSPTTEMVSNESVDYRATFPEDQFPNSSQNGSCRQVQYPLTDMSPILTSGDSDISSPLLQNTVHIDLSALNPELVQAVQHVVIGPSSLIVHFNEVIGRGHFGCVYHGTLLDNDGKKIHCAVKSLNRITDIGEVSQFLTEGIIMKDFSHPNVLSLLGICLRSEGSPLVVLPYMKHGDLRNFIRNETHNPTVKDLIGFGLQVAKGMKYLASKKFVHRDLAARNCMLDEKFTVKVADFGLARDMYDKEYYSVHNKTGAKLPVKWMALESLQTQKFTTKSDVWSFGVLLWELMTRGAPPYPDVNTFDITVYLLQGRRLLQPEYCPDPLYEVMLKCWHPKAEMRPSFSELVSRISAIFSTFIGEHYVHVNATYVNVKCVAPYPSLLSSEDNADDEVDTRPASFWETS
# RON (human), sequence (Q04912 25-1400): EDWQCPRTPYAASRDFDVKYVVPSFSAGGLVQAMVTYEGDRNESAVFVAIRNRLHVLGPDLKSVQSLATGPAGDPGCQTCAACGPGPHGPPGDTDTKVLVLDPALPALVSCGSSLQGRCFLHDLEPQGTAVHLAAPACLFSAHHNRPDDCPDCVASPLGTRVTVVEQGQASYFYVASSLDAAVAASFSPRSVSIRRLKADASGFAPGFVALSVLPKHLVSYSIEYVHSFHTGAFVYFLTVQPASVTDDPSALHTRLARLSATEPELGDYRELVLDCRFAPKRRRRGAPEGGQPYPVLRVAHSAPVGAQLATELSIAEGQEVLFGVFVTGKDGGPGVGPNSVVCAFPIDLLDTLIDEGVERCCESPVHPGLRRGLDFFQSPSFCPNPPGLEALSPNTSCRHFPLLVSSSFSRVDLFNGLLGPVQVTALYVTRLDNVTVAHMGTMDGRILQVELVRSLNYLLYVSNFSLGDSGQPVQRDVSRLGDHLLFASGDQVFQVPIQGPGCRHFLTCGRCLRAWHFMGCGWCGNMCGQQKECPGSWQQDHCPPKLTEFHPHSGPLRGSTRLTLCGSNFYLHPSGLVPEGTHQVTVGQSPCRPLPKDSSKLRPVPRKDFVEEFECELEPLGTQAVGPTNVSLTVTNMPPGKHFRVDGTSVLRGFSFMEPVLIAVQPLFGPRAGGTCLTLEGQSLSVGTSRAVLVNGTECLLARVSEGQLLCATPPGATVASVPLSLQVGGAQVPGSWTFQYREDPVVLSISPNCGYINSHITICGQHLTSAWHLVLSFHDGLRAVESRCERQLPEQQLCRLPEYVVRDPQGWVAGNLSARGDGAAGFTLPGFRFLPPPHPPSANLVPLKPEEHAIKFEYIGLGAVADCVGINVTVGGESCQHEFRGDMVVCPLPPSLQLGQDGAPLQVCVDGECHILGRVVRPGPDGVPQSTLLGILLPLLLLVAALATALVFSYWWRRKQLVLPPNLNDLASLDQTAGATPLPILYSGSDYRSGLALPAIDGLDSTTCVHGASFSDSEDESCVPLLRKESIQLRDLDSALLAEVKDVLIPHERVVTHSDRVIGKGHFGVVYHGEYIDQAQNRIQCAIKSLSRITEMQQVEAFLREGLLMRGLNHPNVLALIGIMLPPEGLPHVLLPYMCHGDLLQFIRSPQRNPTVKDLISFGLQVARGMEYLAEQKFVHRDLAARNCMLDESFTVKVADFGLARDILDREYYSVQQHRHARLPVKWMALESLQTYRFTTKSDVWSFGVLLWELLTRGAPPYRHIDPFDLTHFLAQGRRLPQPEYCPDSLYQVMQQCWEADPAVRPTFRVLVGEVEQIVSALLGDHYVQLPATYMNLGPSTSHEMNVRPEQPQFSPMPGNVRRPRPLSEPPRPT
Structure (SMILES),IC50 (MET (human)) [nM],IC50 (RON (human)) [nM]
"Nc1ncc(-c2cnn(C3CCNCC3)c2)cc1-c1nc2cccc(C(F)(F)F)c2s1 [Example 260, 5-(1-Piperidin-4-yl-1H-pyrazol-4-yl)-3-(7-trifluoromethylbenzothiazol-2-yl)-pyridin-2-ylamine]",100 to 1000,100 to 1000
"Nc1ncc(-c2cnn(C3CCNCC3)c2)cc1-c1nc2cc(C(F)(F)F)ccc2s1 [Example 261, 5-(1-Piperidin-4-yl-1H-pyrazol-4-yl)-3-(5-trifluoromethylbenzothiazol-2-yl)-pyridin-2-ylamine]",100 to 1000,100 to 1000
"COc1cccc2nc(-c3cc(-c4cnn(C5CCNCC5)c4)cnc3N)sc12 [Example 264, 3-(7-Methoxybenzothiazol-2-yl)-5-(1-piperidin-4-yl-1H-pyrazol-4-yl)-pyridin-2-ylamine]",≤ 100,100 to 1000
"Nc1ncc(-c2cnn(C3CCNCC3)c2)cc1-c1nc2ccc(OC(F)(F)F)cc2s1 [Example 266, 5-(1-Piperidin-4-yl-1H-pyrazol-4-yl)-3-(6-trifluoromethoxybenzothiazol-2-yl)-pyridin-2-ylamine]",1000 to 20000,1000 to 20000
"N#Cc1ccc2sc(-c3cc(-c4cnn(C5CCNCC5)c4)cnc3N)nc2c1 [Example 267, 2-[2-Amino-5-(1-piperidin-4-yl-1H-pyrazol-4-yl)-pyridin-3-yl]-benzothiazole-5-carbonitrile]",≤ 100,≤ 100
"N#Cc1ccc2nc(-c3cc(-c4cnn(C5CCNCC5)c4)cnc3N)sc2c1 [Example 268, 2-[2-Amino-5-(1-piperidin-4-yl-1H-pyrazol-4-yl)-pyridin-3-yl]-benzothiazole-6-carbonitrile]",100 to 1000,100 to 1000
"Nc1ncc(-c2cnn(C3CCNCC3)c2)cc1-c1nc2c(C(F)(F)F)ccc(F)c2s1 [Example 269, 3-(7-Fluoro-4-trifluoromethylbenzothiazol-2-yl)-5-(1-piperidin-4-yl-1H-pyrazol-4-yl)-pyridin-2-ylamine]",100 to 1000,100 to 1000
"COc1ccc2sc(-c3cc(-c4cnn(C5CCNCC5)c4)cnc3N)nc2c1 [Example 271, 3-(5-Methoxybenzothiazol-2-yl)-5-(1-piperidin-4-yl-1H-pyrazol-4-yl)-pyridin-2-ylamine]",100 to 1000,100 to 1000
"Nc1ncc(-c2cnn(C3CCNCC3)c2)cc1-c1nc2ccc(C(F)(F)F)cc2s1 [Example 279, 5-(1-Piperidin-4-yl-1H-pyrazol-4-yl)-3-(6-trifluoromethylbenzothiazol-2-yl)-pyridin-2-ylamine]",100 to 1000,100 to 1000
"Cc1ccc(C(F)(F)F)c2nc(-c3cc(-c4cnn(C5CCNCC5)c4)cnc3N)sc12 [Example 280, 3-(7-Methyl-4-trifluoromethylbenzothiazol-2-yl)-5-(1-piperidin-4-yl-1H-pyrazol-4-yl)-pyridin-2-ylamine]",100 to 1000,100 to 1000
"Nc1ncc(-c2cnn(C3CCNCC3)c2)cc1-c1nc2cc(OC(F)(F)F)ccc2s1 [Example 281, 5-(1-Piperidin-4-yl-1H-pyrazol-4-yl)-3-(5-trifluoromethoxybenzothiazol-2-yl)-pyridin-2-ylamine]",100 to 1000,100 to 1000
"Nc1ncc(-c2cnn(C3CCNCC3)c2)cc1-c1nc2c(C(F)(F)F)ccc(Cl)c2s1 [Example 282, 3-(7-Chloro-4-trifluoromethylbenzothiazol-2-yl)-5-(1-piperidin-4-yl-1H-pyrazol-4-yl)-pyridin-2-ylamine]",100 to 1000,100 to 1000
"Nc1ncc(-c2cnn(C3CCNCC3)c2)cc1-c1nc2c(C(F)(F)F)c(F)ccc2s1 [Example 286, 3-(5-Fluoro-4-trifluoromethylbenzothiazol-2-yl)-5-(1-piperidin-4-yl-1H-pyrazol-4-yl)-pyridin-2-ylamine]",100 to 1000,100 to 1000
"Nc1ncc(-c2cnn(C3CCNCC3)c2)cc1-c1nc2c(Br)cc(OC(F)(F)F)cc2s1 [Example 287, 3-(4-Bromo-6-trifluoromethoxybenzothiazol-2-yl)-5-(1-piperidin-4-yl-1H-pyrazol-4-yl)-pyridin-2-ylamine]",1000 to 20000,100 to 1000
"Nc1ncc(-c2cnn(CCC(=O)N3CCCCC3)c2)cc1-c1nc2ccccc2s1 [Example 288, 3-[4-(6-Amino-5-benzothiazol-2-ylpyridin-3-yl)-pyrazol-1-yl]-1-piperidin-1-ylpropan-1-one]",100 to 1000,> 20000
"Nc1ncc(-c2cnn(CCC(=O)N3CCC(O)C3)c2)cc1-c1nc2ccccc2s1 (centres unmarked) [Example 289, 3-[4-(6-Amino-5-benzothiazol-2-ylpyridin-3-yl)-pyrazol-1-yl]-1-(3-hydroxypyrrolidin-1-yl)-propan-1-one]",100 to 1000,1000 to 20000

# Further lines, results first:
IC50 (MET (human)) [nM],IC50 (RON (human)) [nM],Structure (SMILES)
≤ 100,100 to 1000,"Nc1ncc(-c2cnn(C3CCNCC3)c2)cc1-c1nc2c(F)cccc2s1 [Example 256, 3-(4-Fluorobenzothiazol-2-yl)-5-(1-piperidin-4-yl-1H-pyrazol-4-yl)-pyridin-2-ylamine]"
100 to 1000,100 to 1000,"Cc1cccc2sc(-c3cc(-c4cnn(C5CCNCC5)c4)cnc3N)nc12 [Example 257, 3-(4-Methylbenzothiazol-2-yl)-5-(1-piperidin-4-yl-1H-pyrazol-4-yl)-pyridin-2-ylamine]"
≤ 100,100 to 1000,"Nc1ncc(-c2cnn(C3CCNCC3)c2)cc1-c1nc2cc(Cl)ccc2s1 [Example 258, 3-(5-Chlorobenzothiazol-2-yl)-5-(1-piperidin-4-yl-1H-pyrazol-4-yl)-pyridin-2-ylamine]"
≤ 100,≤ 100,"Nc1ncc(-c2cnn(C3CCNCC3)c2)cc1-c1nc2cccc(Cl)c2s1 [Example 259, 3-(7-Chlorobenzothiazol-2-yl)-5-(1-piperidin-4-yl-1H-pyrazol-4-yl)-pyridin-2-ylamine]"
100 to 1000,100 to 1000,"Nc1ncc(-c2cnn(C3CCNCC3)c2)cc1-c1nc2c(C(F)(F)F)cccc2s1 [Example 262, 5-(1-Piperidin-4-yl-1H-pyrazol-4-yl)-3-(4-trifluoromethylbenzothiazol-2-yl)-pyridin-2-ylamine]"
≤ 100,≤ 100,"Cc1cccc2nc(-c3cc(-c4cnn(C5CCNCC5)c4)cnc3N)sc12 [Example 263, 3-(7-Methylbenzothiazol-2-yl)-5-(1-piperidin-4-yl-1H-pyrazol-4-yl)-pyridin-2-ylamine]"
≤ 100,100 to 1000,"Nc1ncc(-c2cnn(C3CCNCC3)c2)cc1-c1nc2c(Br)cccc2s1 [Example 265, 3-(4-Bromobenzothiazol-2-yl)-5-(1-piperidin-4-yl-1H-pyrazol-4-yl)-pyridin-2-ylamine]"
100 to 1000,100 to 1000,"Nc1ncc(-c2cnn(C3CCNCC3)c2)cc1-c1nc2cccc(F)c2s1 [Example 270, 3-(7-Fluorobenzothiazol-2-yl)-5-(1-piperidin-4-yl-1H-pyrazol-4-yl)-pyridin-2-ylamine]"
100 to 1000,100 to 1000,"Cc1ccc2sc(-c3cc(-c4cnn(C5CCNCC5)c4)cnc3N)nc2c1 [Example 272, 3-(5-Methylbenzothiazol-2-yl)-5-(1-piperidin-4-yl-1H-pyrazol-4-yl)-pyridin-2-ylamine]"
≤ 100,≤ 100,"Nc1ncc(-c2cnn(C3CCNCC3)c2)cc1-c1nc2cccc(Br)c2s1 [Example 273, 3-(7-Bromobenzothiazol-2-yl)-5-(1-piperidin-4-yl-1H-pyrazol-4-yl)-pyridin-2-ylamine]"
≤ 100,100 to 1000,"Nc1ncc(-c2cnn(C3CCNCC3)c2)cc1-c1nc2c(F)c(F)ccc2s1 [Example 274, 3-(4,5-Difluorobenzothiazol-2-yl)-5-(1-piperidin-4-yl-1H-pyrazol-4-yl)-pyridin-2-ylamine]"
100 to 1000,100 to 1000,"N#Cc1cccc2nc(-c3cc(-c4cnn(C5CCNCC5)c4)cnc3N)sc12 [Example 275, 2-[2-Amino-5-(1-piperidin-4-yl-1H-pyrazol-4-yl)-pyridin-3-yl]-benzothiazole-7-carbonitrile]"
100 to 1000,100 to 1000,"Nc1ncc(-c2cnn(C3CCNCC3)c2)cc1-c1nc2cc(Br)ccc2s1 [Example 276, 3-(5-Bromobenzothiazol-2-yl)-5-(1-piperidin-4-yl-1H-pyrazol-4-yl)-pyridin-2-ylamine]"
100 to 1000,100 to 1000,"COc1cccc2sc(-c3cc(-c4cnn(C5CCNCC5)c4)cnc3N)nc12 [Example 277, 3-(4-Methoxybenzothiazol-2-yl)-5-(1-piperidin-4-yl-1H-pyrazol-4-yl)-pyridin-2-ylamine]"
≤ 100,100 to 1000,"Nc1ncc(-c2cnn(C3CCNCC3)c2)cc1-c1nc2c(Cl)cccc2s1 [Example 278, 3-(4-Chlorobenzothiazol-2-yl)-5-(1-piperidin-4-yl-1H-pyrazol-4-yl)-pyridin-2-ylamine]"
≤ 100,≤ 100,"Nc1ncc(-c2cnn(C3CCNCC3)c2)cc1-c1nc2cc(F)ccc2s1 [Example 283, 3-(5-Fluorobenzothiazol-2-yl)-5-(1-piperidin-4-yl-1H-pyrazol-4-yl)-pyridin-2-ylamine]"
100 to 1000,100 to 1000,"N#Cc1cccc2sc(-c3cc(-c4cnn(C5CCNCC5)c4)cnc3N)nc12 [Example 284, 2-[2-Amino-5-(1-piperidin-4-yl-1H-pyrazol-4-yl)-pyridin-3-yl]-benzothiazole-4-carbonitrile]"
100 to 1000,1000 to 20000,"Nc1ncc(-c2cnn(C3CCNCC3)c2)cc1-c1nc2c(OC(F)(F)F)cccc2s1 [Example 285, 5-(1-Piperidin-4-yl-1H-pyrazol-4-yl)-3-(4-trifluoromethoxybenzothiazol-2-yl)-pyridin-2-ylamine]"
